Tests used:
Format in all cases: in vivo
[1] = tested on: Echinochloa crus-galli (ECHCG); assay: Post-emergence glasshouse herbicide test; settings: POST Application, 1000 g/h, after 13 days
[2] = tested on: Amaranthus retoflexus (AMARE); assay: Post-emergence glasshouse herbicide test; settings: POST Application, 1000 g/h, after 13 days
[3] = tested on: Alopecurus myosuroides (ALOMY); assay: Post-emergence glasshouse herbicide test; settings: POST Application, 1000 g/h, after 13 days
In short: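 In this glasshouse post-emergence test, ALOMY plants were cultivated in standard soil for 8 days under controlled conditions (24/16° C. day/night, 14 hours light, 65% humidity). They were then treated with a spray derived from an acetone/water (50:50) formulation with 0.5% Tween 20, grown on with watering twice daily, and rated for percentage damage after 13 days.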

[4] = tested on: Ipomoea hederacea (IPOHE); assay: Post-emergence glasshouse herbicide test; settings: POST Application, 1000 g/h, after 13 days
Solanum nigrum (SOLNI) [5] = assay: Post-emergence glasshouse herbicide test; settings: POST Application, 1000 g/h, after 13 days
In short: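 This glasshouse post-emergence herbicide test used Solanum nigrum plants sown in standard soil and cultivated for 8 days under controlled conditions (24/16° C. day/night, 14 hours light, 65% humidity). An aqueous spray from an acetone/water (50:50) solution with 0.5% Tween 20 was applied. Plants were watered twice daily, and damage to each plant was assessed as a percentage 13 days later.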

Setaria faberi (SETFA) [6] = assay: Post-emergence glasshouse herbicide test; settings: POST Application, 1000 g/h, after 13 days
In short: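 This post-emergence glasshouse herbicide test used SETFA plants raised in pots of standard soil for 8 days under controlled conditions (24/16° C., 14 hours light, 65% humidity). An aqueous spray made from acetone/water (50:50) with 0.5% Tween 20 was applied. Plants were watered twice daily, and percentage plant damage was assessed 13 days later.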

Setaria faberi (SETFA) [7] = assay: Pre-emergence glasshouse herbicide test; settings: PRE Application, 1000 g/h, after 13 days
[8] = tested on: Echinochloa crus-galli (ECHCG); assay: Pre-emergence glasshouse herbicide test; settings: PRE Application, 1000 g/h, after 13 days
[9] = tested on: Amaranthus retoflexus (AMARE); assay: Pre-emergence glasshouse herbicide test; settings: PRE Application, 1000 g/h, after 13 days
[10] = tested on: Alopecurus myosuroides (ALOMY); assay: Pre-emergence glasshouse herbicide test; settings: PRE Application, 1000 g/h, after 13 days
In short: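 This pre-emergence glasshouse test used pots of standard soil sown with ALOMY seed and cultivated for one day under controlled conditions of 24/16° C., 14 hours light and 65% humidity. An aqueous spray from an acetone/water (50:50) formulation with 0.5% Tween 20 was applied. After 13 days of further growth with twice-daily watering, plant damage was rated as a percentage.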

[11] = tested on: Ipomoea hederacea (IPOHE); assay: Pre-emergence glasshouse herbicide test; settings: PRE Application, 1000 g/h, after 13 days
Solanum nigrum (SOLNI) [12] = assay: Pre-emergence glasshouse herbicide test; settings: PRE Application, 1000 g/h, after 13 days

| Structure (SMILES) | percentage damage caused to the plant, ECHCG [1] | percentage damage caused to the plant, AMARE [2] | percentage damage caused to the plant, ALOMY [3] | percentage damage caused to the plant, IPOHE [4] | percentage damage caused to the plant, SOLNI (Solanum nigrum (SOLNI) [5]) | percentage damage caused to the plant, SETFA (Setaria faberi (SETFA) [6]) | percentage damage caused to the plant, SETFA (Setaria faberi (SETFA) [7]) | percentage damage caused to the plant, ECHCG [8] | percentage damage caused to the plant, AMARE [9] | percentage damage caused to the plant, ALOMY [10] | percentage damage caused to the plant, IPOHE [11] | percentage damage caused to the plant, SOLNI (Solanum nigrum (SOLNI) [12]) |
| --- | --- | --- | --- | --- | --- | --- | --- | --- | --- | --- | --- | --- |
| Cc1nc2c(cc1F)cc(C(=O)Nc1nnnn1C)c(=O)n2-c1ccccc1 [Compound 6.003] | 4 (4=60-79%) | 5 (5=80-100%) | 1 (1=0-19%) | 5 (5=80-100%) | 5 (5=80-100%) | 3 (3=40-59%) | 1 (1=0-19%) | 3 (3=40-59%) | 5 (5=80-100%) | 1 (1=0-19%) | 3 (3=40-59%) | 5 (5=80-100%) |
| Cn1nnnc1NC(=O)c1nc2ccccc2n(-c2ccc(Cl)c(C(F)(F)F)c2)c1=O [Compound 5.037] | 5 (5=80-100%) | 5 (5=80-100%) | 4 (4=60-79%) | 5 (5=80-100%) | 5 (5=80-100%) | 5 (5=80-100%) | 5 (5=80-100%) | 2 (2=20-39%) | 5 (5=80-100%) | 4 (4=60-79%) | 5 (5=80-100%) | 5 (5=80-100%) |
| Cc1cc(-n2c(=O)c(C(=O)Nc3nnnn3C)nc3ccccc32)ccc1Cl [Compound 5.036] | 5 (5=80-100%) | 5 (5=80-100%) | 2 (2=20-39%) | 5 (5=80-100%) | 5 (5=80-100%) | 4 (4=60-79%) | 4 (4=60-79%) | 3 (3=40-59%) | 5 (5=80-100%) | 3 (3=40-59%) | 5 (5=80-100%) | 5 (5=80-100%) |
| Cc1cccc(-n2c(=O)c(C(=O)Nc3nnnn3C)nc3ccccc32)n1 [Compound 5.003] | 5 (5=80-100%) | 5 (5=80-100%) | 5 (5=80-100%) | 5 (5=80-100%) | 5 (5=80-100%) | 5 (5=80-100%) | 5 (5=80-100%) | 5 (5=80-100%) | 5 (5=80-100%) | 5 (5=80-100%) | 5 (5=80-100%) | 5 (5=80-100%) |
| Cn1nnnc1NC(=O)c1nc2ccccc2n(-c2ccc(Br)cc2)c1=O [Compound 5.032] | 3 (3=40-59%) | 5 (5=80-100%) | 2 (2=20-39%) | 5 (5=80-100%) | 5 (5=80-100%) | 5 (5=80-100%) | 5 (5=80-100%) | 4 (4=60-79%) | 5 (5=80-100%) | 4 (4=60-79%) | 5 (5=80-100%) | 5 (5=80-100%) |
| CCOc1cccc(-n2c(=O)c(C(=O)Nc3nnnn3C)nc3ccccc32)c1 [Compound 5.014] | 4 (4=60-79%) | 5 (5=80-100%) | 3 (3=40-59%) | 5 (5=80-100%) | 5 (5=80-100%) | 5 (5=80-100%) | 5 (5=80-100%) | 2 (2=20-39%) | 5 (5=80-100%) | 2 (2=20-39%) | 4 (4=60-79%) | 5 (5=80-100%) |
| Cn1nnnc1NC(=O)c1nc2ccccc2n(-c2cccc(C#N)c2)c1=O [Compound 5.021] | 2 (2=20-39%) | 5 (5=80-100%) | 4 (4=60-79%) | 5 (5=80-100%) | 5 (5=80-100%) | 5 (5=80-100%) | 5 (5=80-100%) | 5 (5=80-100%) | 5 (5=80-100%) | 5 (5=80-100%) | 5 (5=80-100%) | 5 (5=80-100%) |
| COc1ccc(-n2c(=O)c(C(=O)Nc3nnnn3C)nc3ccccc32)cc1 [Compound 5.009] | 4 (4=60-79%) | 5 (5=80-100%) | 1 (1=0-19%) | 3 (3=40-59%) | 5 (5=80-100%) | 2 (2=20-39%) | 1 (1=0-19%) | 5 (5=80-100%) | 5 (5=80-100%) | 2 (2=20-39%) | 5 (5=80-100%) | 5 (5=80-100%) |
| Cc1cccc(-n2c(=O)c(C(=O)Nc3ncnn3C)nc3ccccc32)n1 [Compound 5.038] | 2 (2=20-39%) | 5 (5=80-100%) | 5 (5=80-100%) | 5 (5=80-100%) | 5 (5=80-100%) | 5 (5=80-100%) | 4 (4=60-79%) | 1 (1=0-19%) | 5 (5=80-100%) | 4 (4=60-79%) | 3 (3=40-59%) | 5 (5=80-100%) |
| CCn1c(=O)c(C(=O)Nc2nnnn2C)cc2cnc(Cl)cc21 [Compound 2.002] | 2 (2=20-39%) | 5 (5=80-100%) | 1 (1=0-19%) | 5 (5=80-100%) | 5 (5=80-100%) | 1 (1=0-19%) | 1 (1=0-19%) | 2 (2=20-39%) | 5 (5=80-100%) | 1 (1=0-19%) | 3 (3=40-59%) | 4 (4=60-79%) |
| Cn1nnnc1NC(=O)c1nc2ccccc2n(-c2ccc(C(F)(F)F)c(Cl)c2)c1=O [Compound 5.040] | 2 (2=20-39%) | 5 (5=80-100%) | 2 (2=20-39%) | 5 (5=80-100%) | 5 (5=80-100%) | 2 (2=20-39%) | 1 (1=0-19%) | 1 (1=0-19%) | 5 (5=80-100%) | 1 (1=0-19%) | 3 (3=40-59%) | 5 (5=80-100%) |
